Legend:
Assay type in all cases: cell-based, human
[1] = tested on: CAP37 protein in stromal keratocytes; assay: Immunocytochemical detection of CAP37 protein induction in stromal keratocytes
Description: (§1) For immunocytochemical analysis of HCEC and stromal keratocytes in culture, the cells were cultured on coverslips (CORNING COSTAR, Acton, Mass.) placed within 24-well tissue culture plates (CORNING COSTAR) until they reached 70% confluence and immunostained for CAP37 as described above except for the following changes. Cells were fixed in formol-acetone, pH 7.4 for 60 s at 4° C. (13) and were stained using the mouse anti-human CAP37 antiserum (1:500 dilution).
(§2) To determine if pro-inflammatory cytokines could induce CAP37 in HCEC and keratocytes we treated these cell cultures with TNF-α (0-10 ng/ml, Boehringer-Mannheim, Indianapolis, Ind.) and IL-1β (0-20 ng/ml, ENDOGEN, Woburn, Mass.) for 0-24 hr and assayed the cells immunocytochemically for the presence of CAP37 protein as described above. Untreated cell cultures were included for each test sample. In addition to protein detection, upregulation of CAP37 mRNA in response to TNF-α and IL-1β was measured by RT-PCR as described below.

PECAM-1 (CD31) = assay: Flow cytometry of PECAM-1 expression on HCEC; settings: TNF-α control, after 12 hr
Description: Flow cytometry was used to assess the upregulation of PECAM-1 (CD31), and the integrin molecules β1 (CD29), β2 (CD18), β3 (CD61), β4 (CD104), α1 (CD49a), α2 (CD49b), α3 (CD49c), α4 (CD 49d), and αv (CD51). Human corneal epithelial cells were cultured as above and treated with CAP37 (0-2000 ng/ml) for 0-72 hr. A corresponding culture was left untreated at each time point. Following treatment with CAP37, cells were detached with 0.25% trypsin in 1 mM EDTA (pH 7.4, FISHER SCIENTIFIC, Pittsburgh, Pa.), washed twice in PBS and fixed with 0.125% paraformaldehyde (J.T. BAKER, Phillipsburg, N.J.) overnight at 4° C. The cells were washed in PBS and then incubated in 0.5% normal goat serum and 0.5% bovine serum albumin (BSA) in PBS for 30 min to block non-specific binding sites. Cells were incubated in the primary antibody (at concentrations described below) at 4° C. for 1 hr followed by the secondary antibody (FITC-goat anti-mouse IgG, PHARMINGEN, San Diego, Calif.) at 0.5 μg/10^6 cells and incubated at 4° C. for 30 min. The isotype control for these studies was FITC-labeled mouse isotype IgG1 (PHARMINGEN). The cells were analyzed by flow cytometry (FACS Calibur, BECTON DICKINSON, San Jose, Calif.). At least ten thousand cells were analyzed for each sample. […]

CAP37 mRNA in HCEC = assay: RT-PCR of CAP37 mRNA induction in HCEC
Description: as §2
Cultured HCEC were treated with 5 ng/ml TNF-α and 10 ng/ml IL-1β for 0-8 hr at 37° C. Total cellular RNA was isolated from untreated and treated HCEC according to vendor specifications (TRIzol™, Gibco BRL). After reverse-transcription of 5 μg of total RNA by random oligonucleotide priming (hexanucleotide mix, BOEHRINGER-MANNHEIM, GmbH, Germany), the resulting single stranded cDNA was amplified by PCR (PERKIN ELMER 2400 thermocycler, Norwalk, Conn.) using CAP37 specific primers ([…] (SEQ ID NO:9) and […] (SEQ ID NO:10)) designed for a 597 bp internal fragment of HL60-CAP37 (34). The reaction conditions for reverse transcription were 80 units of RNAse inhibitor (SIGMA), 8 μl of 5× strand buffer, 2 μl of random hexanucleotide mix, 1 mM dNTPs (GIBCO BRL), 10 mM DTT (GIBCO BRL), and 400 units of M-MLV RT (GIBCO BRL) in a total volume of […]. The reaction mix was incubated at 37° C. for 50 min followed by incubation at 70° C. for 15 min. The PCR mix (1.5 mM MgCl2, 0.2 mM dNTPs, 1.26 μM of each primer and 1 unit Taq polymerase, GIBCO BRL) was amplified for 30 cycles. Amplified DNA fragments were separated by electrophoresis on a 1% agarose gel and visualized by exposure to UV after ethidium bromide (0.5 μg/ml) staining. To assess the integrity of the cDNA, primers for human β-actin were used.

CAP37 protein in HCEC = assay: Immunocytochemical detection of CAP37 protein induction in HCEC; settings: for Time of maximum CAP37 protein induction: HCEC
Description: as §1, §2

Substance | Induction of CAP37 protein [1] | Duration of effect on PECAM-1 expression (PECAM-1 (CD31)) | Earliest expression of CAP37 mRNA (CAP37 mRNA in HCEC; TNF-α 5 ng/ml) | Time of maximum CAP37 mRNA levels (CAP37 mRNA in HCEC; TNF-α 5 ng/ml, reduced by 4 hr) | Time of maximum CAP37 protein induction (CAP37 protein in HCEC) | Earliest detection of CAP37 protein (CAP37 protein in HCEC; HCEC treated with TNF-α) | Initial expression of CAP37 mRNA post stimulation (CAP37 mRNA in HCEC; IL-1β 10 ng/ml) | CAP37 mRNA (CAP37 mRNA in HCEC; IL-1β 10 ng/ml, 6 hr) | Time point at which expression of CAP37 protein was observed (CAP37 protein in HCEC; HCEC treated with IL-1β)
TNF-α | showed the induction of CAP37 protein | more sustained, lasting until 24 hr | 15 min | between 30 min and 2 hr | 24 h | 60 min |  |  | 
IL-1β: proinflammatory cytokine used to induce CAP37 | showed the induction of CAP37 protein |  |  |  | 24 h |  | 1 h | can be detected | 4 h
